The record followed here is patent publication US11981646B1, “3-(4-methoxyphenyl)-5-{[5-methyl-2-(propan-2-yl)phenoxy]methyl}-1,2,4-oxadiazole as an antitumor and antimicrobial compound” (King Faisal University, priority 2023, dated 2024).

In test [1] the test system is human prostate cancer cells (PC3). Description: Assessment of cytotoxicity by SRB assay, PC3 cells. As to conditions: 0.01 μM to 100 μM for 72 h. It is filed as cell-based. As for the experimental part:
(§1) Human prostate cancer cells (PC3) and human osteosarcoma cells (MG-63) were obtained from Nawah Scientific Inc. (Mokatam, Cairo, Egypt) and cultured in DMEM (Dulbecco's modified eagle's medium), Gibco, USA, supplemented with fetal bovine serum (FBS) at a concentration of 10% and 100 U/mL of penicillin and streptomycin (PS). The Cells were incubated at 37° C. in a humidified environment that contained 5% CO2. Cells were seeded in 96-well plates as aliquots of 100 μL cell suspension and incubated in a complete media for 24 h. Afterward, cells were treated with 3-(4-methoxyphenyl)-5-{[5-methyl-2-(propan-2-yl)phenoxy]methyl}-1,2,4-oxadiazole at diverse concentrations ranging from 0.01 μM to 100 μM for 72 h. Then, cells were fixed at 4° C. for one hour with 150 μL of 10% trichloroacetic acid (TCA). After washing the cells five times with distilled water, 70 μL of sulforhodamine (SRB) solution (0.4% w/v) was added and incubated for 10 min at room temperature in a dark place. […] Then, 150 μL of Tris pH 10.5 (10 mM) was added, and the absorbance was measured at 540 nm using a BMG LABTECH®-FLUOstar Omega microplate reader (Ortenberg, Germany). Half maximal inhibitory concentrations (IC50) values were calculated for each experiment using GraphPad Prism 6 software. […] The inhibition was calculated using the following equation: Inhibition %=100−Average Viability

In test [2] the test system is human osteosarcoma cells (MG-63). Description: Assessment of cytotoxicity by SRB assay, MG-63 cells. To be noted: 0.01 μM to 100 μM for 72 h. The test is classed as cell-based. As to the method: as §1

As for `COc1ccc(-c2noc(COc3cc(C)ccc3C(C)C)n2)cc1` [3-(4-methoxyphenyl)-5-{[5-methyl-2-(propan-2-yl)phenoxy]methyl}-1,2,4-oxadiazole], in test [1], the “antiproliferative activity against prostate cancer cells (PC3)” value was “excellent antiproliferative activities”. For the same molecule, in test [2], the “antiproliferative activity against osteosarcoma (MG-63) cells” value is “excellent antiproliferative activities”.
